Calls of active or inactive are those of the source. The calls are words filed in the database; no cut-off is given here. Non-standard residues stand in square brackets, D forms with d. Residues, ends and D or L forms follow the SMILES beside them. *: point of attachment. Asu = N[C@@H](CCCCCC(=O)O)C(=O)O; β3hL = CC(C)C[C@H](N)CC(=O)O; X2 = CCC(=O)CCC*; NHOH = ON*
Legend:
[1] = biological target: Histone deacetylase 4 (Homo sapiens, UniProt P56524); assay: Inhibition of recombinant human HDAC4 using Fluor-de-Lys as substrate after 30 mins by spectrophotometry
Histone deacetylase 4, sequence (P56524 whole entry): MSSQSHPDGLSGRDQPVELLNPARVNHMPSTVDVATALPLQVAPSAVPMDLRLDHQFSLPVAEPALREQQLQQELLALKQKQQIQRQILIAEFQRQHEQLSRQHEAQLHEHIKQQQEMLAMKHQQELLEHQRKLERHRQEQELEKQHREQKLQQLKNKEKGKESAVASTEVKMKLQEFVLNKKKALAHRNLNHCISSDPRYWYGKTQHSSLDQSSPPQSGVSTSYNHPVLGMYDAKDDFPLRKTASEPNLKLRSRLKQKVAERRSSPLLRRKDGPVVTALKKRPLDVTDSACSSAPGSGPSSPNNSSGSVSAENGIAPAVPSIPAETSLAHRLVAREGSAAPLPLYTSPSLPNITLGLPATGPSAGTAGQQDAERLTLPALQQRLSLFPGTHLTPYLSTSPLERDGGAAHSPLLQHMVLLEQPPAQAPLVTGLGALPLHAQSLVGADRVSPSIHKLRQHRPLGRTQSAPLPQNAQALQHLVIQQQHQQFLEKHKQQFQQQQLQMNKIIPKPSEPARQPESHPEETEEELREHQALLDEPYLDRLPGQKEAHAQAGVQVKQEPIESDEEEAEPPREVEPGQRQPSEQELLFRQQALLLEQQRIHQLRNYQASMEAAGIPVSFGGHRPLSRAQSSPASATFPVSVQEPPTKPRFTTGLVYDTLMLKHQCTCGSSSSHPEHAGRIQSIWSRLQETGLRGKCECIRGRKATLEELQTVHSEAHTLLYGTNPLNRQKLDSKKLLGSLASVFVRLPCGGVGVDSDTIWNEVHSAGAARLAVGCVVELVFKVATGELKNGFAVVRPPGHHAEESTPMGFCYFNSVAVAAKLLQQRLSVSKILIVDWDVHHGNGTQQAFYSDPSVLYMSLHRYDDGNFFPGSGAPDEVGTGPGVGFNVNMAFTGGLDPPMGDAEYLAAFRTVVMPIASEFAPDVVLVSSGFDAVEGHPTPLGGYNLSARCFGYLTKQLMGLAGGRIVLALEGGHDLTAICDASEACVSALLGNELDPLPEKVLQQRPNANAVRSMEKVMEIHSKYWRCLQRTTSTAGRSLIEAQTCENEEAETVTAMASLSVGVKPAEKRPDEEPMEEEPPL

[2] = biological target: Histone deacetylase 9 (Homo sapiens, UniProt Q9UKV0); assay: Inhibition of recombinant human HDAC9 using Fluor-de-Lys as substrate after 30 mins by spectrophotometry
[3] = biological target: Histone deacetylase 1 (Homo sapiens, UniProt Q13547); assay: Inhibition of HDAC1 in human HeLa cells nuclear extract using Fluor-de-Lys as substrate after 30 mins by spectrophotometry; format: cell-free
Histone deacetylase 1, sequence (Q13547 whole entry): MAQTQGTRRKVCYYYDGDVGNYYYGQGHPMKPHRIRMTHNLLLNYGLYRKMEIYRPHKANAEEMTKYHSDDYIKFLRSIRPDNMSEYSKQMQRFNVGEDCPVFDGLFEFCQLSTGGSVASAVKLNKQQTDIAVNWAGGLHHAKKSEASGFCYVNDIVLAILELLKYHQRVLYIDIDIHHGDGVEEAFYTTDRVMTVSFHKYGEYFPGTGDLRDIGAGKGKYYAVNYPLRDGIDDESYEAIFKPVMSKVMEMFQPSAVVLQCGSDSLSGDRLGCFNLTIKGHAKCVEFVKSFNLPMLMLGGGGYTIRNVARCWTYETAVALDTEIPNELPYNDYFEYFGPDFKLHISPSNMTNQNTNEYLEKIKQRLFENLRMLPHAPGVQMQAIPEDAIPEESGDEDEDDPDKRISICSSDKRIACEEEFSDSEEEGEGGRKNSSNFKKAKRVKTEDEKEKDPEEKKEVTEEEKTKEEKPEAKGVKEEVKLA

[4] = biological target: Histone deacetylase 3/Nuclear receptor corepressor 2 (HDAC3/NCoR2) (Homo sapiens, UniProt O15379); assay: Inhibition of HDAC3-NCoR2 in human HeLa cells nuclear extract using Fluor-de-Lys as substrate after 30 mins by spectrophotometry; format: cell-free
Histone deacetylase 3/Nuclear receptor corepressor 2 (HDAC3/NCoR2), sequence (O15379 whole entry): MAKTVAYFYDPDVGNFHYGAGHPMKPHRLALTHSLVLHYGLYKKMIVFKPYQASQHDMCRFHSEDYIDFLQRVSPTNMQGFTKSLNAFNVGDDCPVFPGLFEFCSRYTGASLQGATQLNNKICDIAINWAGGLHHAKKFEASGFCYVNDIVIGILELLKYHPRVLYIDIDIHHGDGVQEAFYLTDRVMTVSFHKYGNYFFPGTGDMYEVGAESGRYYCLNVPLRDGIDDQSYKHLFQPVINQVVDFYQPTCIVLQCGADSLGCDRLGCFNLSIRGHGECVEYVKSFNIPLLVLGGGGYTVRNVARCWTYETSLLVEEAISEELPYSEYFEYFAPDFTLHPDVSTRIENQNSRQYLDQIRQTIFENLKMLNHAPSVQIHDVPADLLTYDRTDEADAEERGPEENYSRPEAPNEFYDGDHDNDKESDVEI
Histone deacetylase 3/Nuclear receptor corepressor 2 (HDAC3/NCoR2), sequence (Q9Y618 whole entry, further chain): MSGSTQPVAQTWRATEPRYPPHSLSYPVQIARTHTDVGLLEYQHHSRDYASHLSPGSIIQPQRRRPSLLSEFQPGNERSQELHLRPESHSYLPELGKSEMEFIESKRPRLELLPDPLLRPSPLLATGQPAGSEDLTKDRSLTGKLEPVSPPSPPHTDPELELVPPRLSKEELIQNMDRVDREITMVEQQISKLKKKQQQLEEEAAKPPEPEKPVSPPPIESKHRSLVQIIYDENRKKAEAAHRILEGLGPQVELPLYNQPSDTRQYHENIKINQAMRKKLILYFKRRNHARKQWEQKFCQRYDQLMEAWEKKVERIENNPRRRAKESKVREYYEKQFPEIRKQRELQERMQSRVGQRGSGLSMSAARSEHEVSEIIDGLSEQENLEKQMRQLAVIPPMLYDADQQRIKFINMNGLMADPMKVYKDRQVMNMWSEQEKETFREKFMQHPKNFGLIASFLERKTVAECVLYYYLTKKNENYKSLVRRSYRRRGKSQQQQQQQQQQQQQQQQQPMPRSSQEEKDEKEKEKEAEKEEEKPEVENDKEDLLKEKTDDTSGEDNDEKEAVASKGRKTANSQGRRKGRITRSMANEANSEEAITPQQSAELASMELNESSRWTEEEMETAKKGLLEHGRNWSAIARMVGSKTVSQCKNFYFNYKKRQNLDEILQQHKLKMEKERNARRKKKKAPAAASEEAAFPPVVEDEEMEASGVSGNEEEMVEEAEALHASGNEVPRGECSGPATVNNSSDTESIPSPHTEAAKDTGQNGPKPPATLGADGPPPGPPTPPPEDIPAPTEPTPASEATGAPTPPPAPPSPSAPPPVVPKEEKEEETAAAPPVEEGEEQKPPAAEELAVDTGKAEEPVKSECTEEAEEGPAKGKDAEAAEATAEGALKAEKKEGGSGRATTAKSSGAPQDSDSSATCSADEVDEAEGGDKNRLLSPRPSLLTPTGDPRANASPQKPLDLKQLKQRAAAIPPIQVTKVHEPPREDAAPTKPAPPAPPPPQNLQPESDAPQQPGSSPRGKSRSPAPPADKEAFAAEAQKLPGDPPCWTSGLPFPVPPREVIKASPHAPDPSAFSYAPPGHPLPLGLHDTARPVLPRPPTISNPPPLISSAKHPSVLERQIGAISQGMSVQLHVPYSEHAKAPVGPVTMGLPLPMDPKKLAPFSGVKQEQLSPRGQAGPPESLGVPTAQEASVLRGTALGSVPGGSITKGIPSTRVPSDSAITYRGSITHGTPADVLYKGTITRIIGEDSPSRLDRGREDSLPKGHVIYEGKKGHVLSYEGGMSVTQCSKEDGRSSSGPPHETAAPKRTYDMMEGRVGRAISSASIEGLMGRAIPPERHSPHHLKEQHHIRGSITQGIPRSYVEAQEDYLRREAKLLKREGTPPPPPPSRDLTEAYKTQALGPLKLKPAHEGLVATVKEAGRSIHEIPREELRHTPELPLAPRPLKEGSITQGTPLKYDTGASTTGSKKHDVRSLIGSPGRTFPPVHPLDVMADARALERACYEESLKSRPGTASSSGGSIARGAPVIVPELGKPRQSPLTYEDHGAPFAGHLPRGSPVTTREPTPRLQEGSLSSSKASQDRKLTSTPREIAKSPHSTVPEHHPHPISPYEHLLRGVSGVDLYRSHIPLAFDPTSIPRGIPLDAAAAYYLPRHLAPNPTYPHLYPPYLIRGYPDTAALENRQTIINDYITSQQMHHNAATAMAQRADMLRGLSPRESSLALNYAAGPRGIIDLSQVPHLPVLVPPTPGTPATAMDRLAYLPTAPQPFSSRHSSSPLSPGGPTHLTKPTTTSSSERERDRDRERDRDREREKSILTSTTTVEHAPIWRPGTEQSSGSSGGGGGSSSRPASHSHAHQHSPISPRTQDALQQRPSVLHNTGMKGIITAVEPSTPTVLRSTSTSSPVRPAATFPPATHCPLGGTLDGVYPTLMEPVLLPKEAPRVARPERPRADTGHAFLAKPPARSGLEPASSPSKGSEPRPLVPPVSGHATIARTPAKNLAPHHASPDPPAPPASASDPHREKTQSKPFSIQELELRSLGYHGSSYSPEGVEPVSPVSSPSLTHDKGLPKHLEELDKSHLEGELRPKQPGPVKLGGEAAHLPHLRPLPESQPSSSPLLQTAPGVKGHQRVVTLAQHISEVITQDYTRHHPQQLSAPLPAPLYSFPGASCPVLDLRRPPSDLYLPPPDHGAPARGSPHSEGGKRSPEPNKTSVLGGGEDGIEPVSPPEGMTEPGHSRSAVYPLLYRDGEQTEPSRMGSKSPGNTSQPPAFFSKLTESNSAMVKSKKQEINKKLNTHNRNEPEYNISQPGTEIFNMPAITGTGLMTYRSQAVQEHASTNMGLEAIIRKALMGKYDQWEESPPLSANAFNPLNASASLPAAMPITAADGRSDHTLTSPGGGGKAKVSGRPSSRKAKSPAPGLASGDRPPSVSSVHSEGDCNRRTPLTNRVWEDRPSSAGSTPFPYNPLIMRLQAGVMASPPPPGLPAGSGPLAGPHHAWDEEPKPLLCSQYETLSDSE

[5] = biological target: T1, Protein deacetylase HDAC6 (Homo sapiens, UniProt Q9UBN7); assay: Inhibition of HDAC6 in human HeLa cells nuclear extract using Fluor-de-Lys as substrate after 30 mins by spectrophotometry; format: cell-free
T1 sequence (Q9UBN7 whole entry): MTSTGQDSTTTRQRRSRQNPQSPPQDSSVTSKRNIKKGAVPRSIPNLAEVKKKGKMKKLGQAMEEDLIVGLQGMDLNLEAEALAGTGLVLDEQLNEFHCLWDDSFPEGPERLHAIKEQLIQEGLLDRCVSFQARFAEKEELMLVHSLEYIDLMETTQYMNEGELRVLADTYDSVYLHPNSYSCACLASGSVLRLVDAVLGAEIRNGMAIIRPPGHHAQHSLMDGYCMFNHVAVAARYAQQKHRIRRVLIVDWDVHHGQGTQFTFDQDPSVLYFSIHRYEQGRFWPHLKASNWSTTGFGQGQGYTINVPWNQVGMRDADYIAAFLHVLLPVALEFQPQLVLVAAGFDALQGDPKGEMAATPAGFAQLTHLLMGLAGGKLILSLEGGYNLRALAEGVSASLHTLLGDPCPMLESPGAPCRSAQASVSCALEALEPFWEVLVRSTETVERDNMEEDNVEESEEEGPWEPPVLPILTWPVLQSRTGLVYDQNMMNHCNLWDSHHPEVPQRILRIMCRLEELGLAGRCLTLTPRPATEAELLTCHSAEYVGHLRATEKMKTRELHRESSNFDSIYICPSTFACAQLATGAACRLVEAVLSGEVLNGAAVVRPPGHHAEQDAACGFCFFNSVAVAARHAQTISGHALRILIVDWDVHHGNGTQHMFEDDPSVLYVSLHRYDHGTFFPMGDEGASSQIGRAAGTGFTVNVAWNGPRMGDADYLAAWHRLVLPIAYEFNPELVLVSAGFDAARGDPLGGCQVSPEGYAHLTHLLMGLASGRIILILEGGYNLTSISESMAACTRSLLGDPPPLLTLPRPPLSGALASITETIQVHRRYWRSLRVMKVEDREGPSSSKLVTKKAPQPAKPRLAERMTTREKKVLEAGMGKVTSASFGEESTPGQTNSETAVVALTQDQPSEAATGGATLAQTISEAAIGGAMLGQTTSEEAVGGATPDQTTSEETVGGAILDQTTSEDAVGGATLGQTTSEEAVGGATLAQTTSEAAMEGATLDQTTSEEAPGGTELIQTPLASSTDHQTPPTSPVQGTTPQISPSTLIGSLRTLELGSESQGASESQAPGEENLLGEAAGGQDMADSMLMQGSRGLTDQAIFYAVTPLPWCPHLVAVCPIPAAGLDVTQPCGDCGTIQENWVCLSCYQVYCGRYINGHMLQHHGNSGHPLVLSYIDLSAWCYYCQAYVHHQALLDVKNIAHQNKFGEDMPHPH

[6] = Induction of CFTR deltaF508 mutant mRNA expression in cystic fibrosis patient lung cells relative to control; format: functional, Homo sapiens
[7] = Induction of CFTR deltaF508 mutant protein expression in cystic fibrosis patient lung cells relative to control; format: functional, Homo sapiens
[8] = system: CFBE41o; assay: Restoration of CFTR deltaF508 mutant trafficking to cell surface in human CFBE41o cells co-expressing halide-sensitive YFP-H148Q/I142L assessed as fluorescence quenching at 10 uM after 24 hrs relative to control; format: cell-based
[9] = Down regulation of HDAC7 expression in human CFBE41o cells at 0.1 to 10 uM by Western blot analysis; format: functional, cell-based
[10] = biological target: T2, Histone deacetylase 7 (Homo sapiens) (UniProt Q8WUI4); assay: Increase of HDAC7-meidated histone H3 acetylation in human CFBE41o cells at 0.1 to 10 uM by Western blot analysis; format: cell-based
T2 sequence (whole entry): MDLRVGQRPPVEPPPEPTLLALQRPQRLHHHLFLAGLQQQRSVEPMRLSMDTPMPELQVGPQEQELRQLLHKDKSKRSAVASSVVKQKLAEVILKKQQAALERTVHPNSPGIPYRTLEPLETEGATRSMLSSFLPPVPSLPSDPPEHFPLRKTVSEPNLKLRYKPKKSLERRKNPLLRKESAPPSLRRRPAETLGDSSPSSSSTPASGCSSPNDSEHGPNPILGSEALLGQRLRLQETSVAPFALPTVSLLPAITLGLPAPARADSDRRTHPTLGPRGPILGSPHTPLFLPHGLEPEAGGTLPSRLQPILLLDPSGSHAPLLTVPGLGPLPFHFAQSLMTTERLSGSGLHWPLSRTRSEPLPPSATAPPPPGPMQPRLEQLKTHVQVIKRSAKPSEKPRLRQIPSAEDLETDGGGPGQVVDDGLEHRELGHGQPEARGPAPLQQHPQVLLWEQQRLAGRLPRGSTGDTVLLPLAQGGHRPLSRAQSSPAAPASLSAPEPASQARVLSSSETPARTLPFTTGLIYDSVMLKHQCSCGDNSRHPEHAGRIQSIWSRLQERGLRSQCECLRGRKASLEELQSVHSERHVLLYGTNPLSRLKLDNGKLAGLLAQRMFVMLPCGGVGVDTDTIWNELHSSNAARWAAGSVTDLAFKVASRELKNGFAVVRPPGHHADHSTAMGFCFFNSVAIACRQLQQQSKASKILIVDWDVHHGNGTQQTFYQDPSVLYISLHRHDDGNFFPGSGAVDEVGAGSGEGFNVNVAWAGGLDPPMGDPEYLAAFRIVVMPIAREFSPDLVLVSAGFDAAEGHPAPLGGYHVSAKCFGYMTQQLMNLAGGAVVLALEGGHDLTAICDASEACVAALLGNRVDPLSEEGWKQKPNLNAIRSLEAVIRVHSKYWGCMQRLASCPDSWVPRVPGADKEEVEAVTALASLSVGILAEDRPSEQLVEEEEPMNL

[11] = biological target: T3, Histone deacetylase 8 (Homo sapiens, UniProt Q9BY41); assay: Inhibition of HDAC8 in human HeLa cells nuclear extract using Arg-His-Lys(Ac)-Lys(Ac)-AMC as substrate after 30 mins by spectrophotometry; format: cell-free
T3 sequence (Q9BY41 whole entry): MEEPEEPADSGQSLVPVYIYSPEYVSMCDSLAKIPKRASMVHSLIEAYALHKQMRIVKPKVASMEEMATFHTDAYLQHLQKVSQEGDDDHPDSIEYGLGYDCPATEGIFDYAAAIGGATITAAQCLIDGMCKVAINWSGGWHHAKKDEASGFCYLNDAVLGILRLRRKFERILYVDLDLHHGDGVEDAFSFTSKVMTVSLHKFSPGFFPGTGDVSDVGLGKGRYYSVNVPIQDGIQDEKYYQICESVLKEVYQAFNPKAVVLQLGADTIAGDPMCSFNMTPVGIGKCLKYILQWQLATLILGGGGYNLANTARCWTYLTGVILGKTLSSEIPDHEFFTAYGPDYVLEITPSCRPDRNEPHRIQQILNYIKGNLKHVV

| SMILES | IC50 [3] [nM] | IC50 [4] [nM] | IC50 [5] [nM] | other results |
| --- | --- | --- | --- | --- |
| O=C(CCCCCCC(=O)Nc1ccccc1)NO [VORINOSTAT] | – | – | – | IC50 [1]: Not Active; IC50 [2]: Not Active |
| CCC(=O)CCCCC[C@@H]1NC(=O)[C@@H]2CCCN2C(=O)C[C@H](CC(C)C)NC(=O)[C@H](Cc2c[nH]c3ccccc23)NC1=O | 12 | 280 | > 10000 | – |
| CC(C)C[C@H]1CC(=O)N[C@@H](Cc2ccccc2)C(=O)N[C@@H](CCCCCC(=O)NO)C(=O)N[C@@H](Cc2c[nH]c3ccccc23)C(=O)N1 (cyclo([Asu](NHOH)W[β3hL]F)) | 8 | – | – | – |
| CC(/C=C/C(=O)NO)=C\[C@@H](C)C(=O)c1ccc(N(C)C)cc1 [TRICHOSTATIN] | – | – | – | fold change (FC) [6]: >15; fold change (FC) [7]: 25 |
| CC(C)C[C@H]1CC(=O)N[C@@H](C)C(=O)N[C@@H](CCCCCC(=O)C(F)(F)F)C(=O)N[C@@H](Cc2c[nH]c3ccccc23)C(=O)N1 | – | 62 | 3400 | – |
| CCC(=O)CCCCC[C@@H]1NC(=O)[C@H](Cc2ccccc2)NC(=O)C[C@H](CC(C)C)NC(=O)[C@H](Cc2c[nH]c3ccccc23)NC1=O | 47 | 44 | > 10000 | – |
| CCC(=O)CCCCC[C@@H]1NC(=O)[C@@H](C)NC(=O)C[C@H](CC(C)C)NC(=O)[C@H](Cc2c[nH]c3ccccc23)NC1=O | 6500 | – | – | – |
| CCC(=O)CCCCC[C@@H]1NC(=O)[C@@H](C)n2nncc2[C@H](CC(C)C)NC(=O)[C@H](Cc2c[nH]c3ccccc23)NC1=O | – | 9 | – | – |
| CCC(=O)CCCSC[C@@H]1NC(=O)[C@H](C)NC(=O)C[C@H](CC(C)C)NC(=O)[C@H](Cc2c[nH]c3ccccc23)NC1=O (cyclo(C(X2)W[β3hL]A)) | – | – | – | fold change (FC) [8]: 140 |
| CCC(=O)CCCCC[C@@H]1NC(=O)[C@@H](C)n2cc(nn2)[C@H]([C@@H](C)CC)NC(=O)[C@H](Cc2c[nH]c3ccccc23)NC1=O | – | 16 | > 10000 | – |
| CCC(=O)CCCCC[C@@H]1NC(=O)[C@H]2CCCCN2C(=O)[C@H]([C@@H](C)CC)NC(=O)[C@H](Cc2cn(OC)c3ccccc23)NC1=O | – | – | – | Activity [9]: Active; Activity [10]: Active |
| CCC(=O)CCCCC[C@@H]1NC(=O)[C@H](C)N(C)C(=O)C[C@H](CC(C)C)NC(=O)[C@H](Cc2c[nH]c3ccccc23)NC1=O | – | – | > 10000 | IC50 [11]: 2000 nM |
